Measured values published in US9896491B2, “Composition for treatment of multiple sclerosis” (LIFEBIO LABORATORIES LLC, priority 2009, dated 2018).

Assays:
ESAMBPCAA [1] = assay: Inhibition of ESAMBPCAA mediated MBP hydrolysis by synthetic oligopeptides of MBP fragment 43-68; type: biochemical, human; settings: antibodies 30 nM, MBP 4 mkM, 16 h at 37° C.; FIG. 3
Experimental: (§1) MBP hydrolysis by anti MBP auto antibodies was assayed as follows: Purified antibodies (0.1-1 μg) were incubated at 37° C. for 14 h in the final volume of 12.5 μl PBS, 0.02% NaN3 containing 1-2 μg of MBP. The samples were mixed with Laemmli's buffer. The extent of MBP degradation was visualized by SDS-PAGE in Tris-glycine and Tricine buffer systems. For quantitative MBP degradation assay, MBP (10 μM) was incubated at 37° C. with antibodies (60 nM) in 0.1 ml of PBS, 0.02% NaN3 for 12 h. The reaction was stopped by adding 10% TFA up to pH 2.5. The samples were further chromatographed on column C4 4.0/150 (Waters). The amount of non-cleaved MBP was calculated by absorbance monitoring at 280 nm.
The oligopeptides were assayed for their potency to inhibit ESAMBPCAA mediated MBP hydrolysis using ESAMBPCAA collected from progressive MS Patient as specified in Example 1. Different concentrations of test peptides were mixed with both antibodies (30 nM) and MBP (4 mkM) in TBS with_0.1% NaN3_and 10 mM CaCl2. The samples were incubated for 16 h at 37° C. and analyzed on 15% SDS_PAGE. The gels were stained by Coomassie and analyzed by densitometry with TOTALLAB 2.01 software (Nonlinear Dynamics, Ltd., Newcastle upon Tyne, U.K.). […] Shortening of oligopeptide lengths to less than 6 amino acids lead to complete lack of ESAMBPCAA inhibitory activity.

ESAMBPCAA [2] = assay: ESAMBPCAA mediated MBP hydrolysis in serum samples of progressive MS patients in presence of test substances; type: biochemical, human; settings: for MBP-specific auto antibody mediated hydrolysis: test substance 100 nM
Experimental: as §1
Serum samples collected from 5 patients suffering from progressive MS were quantified for ESAMBPCAA mediated MBP hydrolysis as specified in Example 1 in presence of following substances: […]

ESAMBPCAA [3] = assay: ESAMBPCAA mediated MBP hydrolysis in serum of treated EAE DA rats; type: in vivo; settings: days 8-12; for rates of MBP-specific auto antibody mediated hydrolysis: median for 6 animals
[4] = test system: Experimental Allergic Encephalomyelitis (EAE) in DA rats; assay: MDS score in EAE DA rats; type: in vivo; settings: intranasal, days 8-12; FIG. 4; dose-dependent for SEQ ID NO: 2
ESAMBPCAA [5] = assay: ESAMBPCAA mediated MBP hydrolysis in serum of treated TMEV-infected SJL mice; type: in vivo; settings: 20 μg of each oligopeptide daily subcutaneous, days 14-24
Experimental: as §1
(§2) The BeAn strain of TMEV used in this study was generated and propagated in BHK-21 cells grown in Dulbecco's modified Eagle's medium supplemented with 7.5% donor calf serum. For i.c. infection, 30 μl of virus solution (0.2×10^6 to 6×10^6 PFU) was injected into the right cerebral hemisphere of 6- to 8-week-old SJL mice (8 animals per group) anesthetized with isoflurane. Clinical symptoms (MDS score) of disease were assessed weekly on the following grading scale: grade 0, no clinical signs; grade 1, mild waddling gait or flaccid tail; grade 2, severe waddling gait; grade 3, moderate hind limb paresis; and grade 4, severe hind limb paralysis. Serum samples collected from animals were quantified for ESAMBPCAA mediated MBP hydrolysis as specified in Example 1
(§3) At day 14 following infection mice were divided into 6 groups ([…]) and treated during 10 days (days 14-24) according following schedule: […]

[6] = test system: Experimental MS (Theiler's Virus Infection) in SJL mice; assay: Experimental MS (Theiler's Virus Infection): disease manifestation and MDS score; type: in vivo; settings: 20 μg of each oligopeptide daily subcutaneous, days 14-24
Experimental: as §2, §3

[7] = test system: Experimental Allergic Encephalomyelitis (EAE) in Dark Agouti (DA) Rats; assay: EAE induced by MBP 63-81 in DA rats: clinical signs score; type: in vivo
Experimental: Female Dark Agouti (DA) Rats, 8-9 weeks of age, about 110-145 g of weight were used as test animals.
For induction of Experimental Allergic Encephalomyelitis (EAE), rats were injected intradermally at the base of the tail with a total volume of 200 μl of inoculum containing 50 μg of MBP 63-81 (ANASPEC), in saline mixed (1:1) with Complete Freund Adjuvant, (IFA, Sigma), and 1 mg killed M. tuberculosis strain (strain H37 RA; Difco Laboratories, Detroit, Mich.). Beginning 24 hours after EAE induction the rats were followed up daily. On day 9 after the after EAE induction more than 50% of the rats developed signs of paralysis. The animals with multiple sclerosis signs were separated into 10 groups for beginning of treatment. Prior to treatment, blood was collected from 2 rats from each group. At day 9 and 11 after EAE induction, 90% of rats developed signs of EAE.
9-11 days after EAE induction the animals were divided into 9 groups (5-6 rats in each). Each group of rats was treated subcutaneously once daily with different claimed oligopeptide or theirs combinations (equimolar mix) (150 μg) or doses of positive control item (Glatiramer acetate, Copaxone, Teva) or negative control item (0.9% Sodium chloride solution), during 6 days as follows:
Copaxone, claimed oligopeptide and combinations thereof (Mechanical mix) were diluted with 0.9% Sodium chloride to a concentration of 450 μg/ml. Volume of 0.33 ml (150 μg/rat/day) was injected SC during 6 days.
After 6 days of the injections cycle the animals were maintained and followed up till day 28th post EAE induction. Clinical signs score was performed daily during study periods. Animals were observed individually during all study periods. In cases of extended observation period clinical signs were recorded once daily. Observations included changes in the fur, eyes, respiratory rate, vocalization, paralysis, activity and behavior pattern. Score of paralysis signs related to MS of each animal was done daily (during all study periods).
Score gradation was as follows: 0—Normal; 1—Tail weakness; 2—Hind leg weakness or paralysis; 3—Hind leg paralysis, dragging hind limbs; 4—Complete paralysis, unable to move; 5—Death.

GGDRGAPKRGSGKDSHH [SEQ ID NO: 2]
inhibition of ESAMBPCAA activity (ESAMBPCAA mediated MBP hydrolysis) (ESAMBPCAA [1]): most potent inhibitory activity | suppressive effect on MBP-specific auto antibody mediated hydrolysis (ESAMBPCAA [2]; 100 nM, summary of Table 3): potent suppressive effect | MBP-specific auto antibody mediated hydrolysis (ESAMBPCAA [2]; Patient 1): 11.2 ± 3.5 pmol/min/nmol | MBP-specific auto antibody mediated hydrolysis (ESAMBPCAA [2]; Patient 2): 17.3 ± 4.1 pmol/min/nmol | MBP-specific auto antibody mediated hydrolysis (ESAMBPCAA [2]; Patient 3): 14.4 ± 2.2 pmol/min/nmol | MBP-specific auto antibody mediated hydrolysis (ESAMBPCAA [2]; Patient 4): 14.5 ± 4.4 pmol/min/nmol | MBP-specific auto antibody mediated hydrolysis (ESAMBPCAA [2]; Patient 5): 16.9 ± 7.3 pmol/min/nmol | rates of MBP-specific auto antibody mediated hydrolysis (ESAMBPCAA [3]; Day 8 (start of treatment), 50 μg daily intranasal): 43.1 ± 6.4 pmol/min/nmol | rates of MBP-specific auto antibody mediated hydrolysis (ESAMBPCAA [3]; Day 8 (start of treatment), 120 μg daily intranasal): 42.8 ± 5.5 pmol/min/nmol | rates of MBP-specific auto antibody mediated hydrolysis (ESAMBPCAA [3]; Day 16, 50 μg daily intranasal): 35.6 ± 4.9 pmol/min/nmol | rates of MBP-specific auto antibody mediated hydrolysis (ESAMBPCAA [3]; Day 16, 120 μg daily intranasal): 17.3 ± 5.4 pmol/min/nmol | rates of MBP-specific auto antibody mediated hydrolysis (ESAMBPCAA [3]; Day 24, 50 μg daily intranasal): 46.3 ± 2.9 pmol/min/nmol | rates of MBP-specific auto antibody mediated hydrolysis (ESAMBPCAA [3]; Day 24, 120 μg daily intranasal): 15.1 ± 3.9 pmol/min/nmol | suppression of MBP-specific auto antibody mediated hydrolysis (ESAMBPCAA [3]; intranasal, dose-dependent for SEQ ID NO: 2): most efficiently suppressed | suppression of MDS score [4]: most efficiently suppressed | ESAMBPCAA activity at day 100 (ESAMBPCAA [5]): 11.4 ± 3.5 pmol/min/nmol | suppression of MBP-specific auto antibody mediated hydrolysis (ESAMBPCAA [5]): most efficiently suppressed | disease-preventive (prophylactic) activity [6]: disease-preventive (prophylactic) activity | % Animals affected with disease at day 100 ([6]; 30 mice per group): 19(30) % | suppression of MDS score ([6]; FIG. 5): most efficiently suppressed | suppression of EAE clinical signs ([7]; 150 μg/rat/day SC during 6 days): most efficiently suppressed | Clinical signs score on day 23 after induction (mean) ([7]; 150 μg/rat/day SC during 6 days from day 9-11 after EAE induction, score 0-5): 0.5
